In patent US20240189279A1, “IMMUNOMODULATORY COMPOSITIONS AND METHODS OF USE THEREOF” (THE TEXAS A&M UNIVERSITY SYSTEM, priority 2022, published 2024):

Experiments:
[1] = system: hepatocytes; test: Cultured hepatocytes (lipid droplet loaded, TNF-α; Fasn/SREBP-1c expression); assay type: cell-based
[2] = I3A levels in fecal material, liver and serum after I3A in drinking water; assay type: in vivo, mice (male B6 129SF1/J); conditions: WD and sugar water containing I3A vs same WD and SW without I3A
From the text: Animal experiments. Male B6 129SF1/J mice at 6 weeks of age were obtained from Jackson Laboratories (Bar Harbor, ME). Mice were acclimatized to the animal facility for one week. At the start of the experiment, mice were randomly divided into four groups (n=10 for each group). Three of the four groups were fed ad libitum a Western diet (WD) with 40% Kcal from fat and containing 0.15% cholesterol (D12079B, Research Diets) and a sugar water (SW) solution (23.1 g/L d-fructose+18.9 g/L d-glucose) as previously described (DIAMOND model (15)). […] The WD group was fed WD and drank sugar water. […] The treatments were continued for another 8 weeks. Water bottles containing SW and I3A or only SW were changed every other day. A fourth group of mice was fed a low-fat control diet (D12450B, Research Diets) and normal water for 16 weeks (CN group) (FIG. 9A). FIG. 9A presents the study design. Mice belonging to the same treatment group were housed together (5 mice/cage). Mice were maintained on 12:12-h light-dark cycles. All procedures were performed in accordance with Texas A&M University Health Sciences Center Institutional Animal Care and Use Committee guidelines under an approved animal use protocol (AUP #2017-0145).
Sample collection. […] FIG. 9B presents the sampling scheme. All fecal pellets were flash frozen in liquid nitrogen after collection. […]

[3] = system: free fatty acids; test: Quantification of free fatty acids in liver and serum of WD mice; assay type: in vivo, mice (male B6 129SF1/J)
From the text: Animal experiments. Male B6 129SF1/J mice at 6 weeks of age were obtained from Jackson Laboratories (Bar Harbor, ME). Mice were acclimatized to the animal facility for one week. At the start of the experiment, mice were randomly divided into four groups (n=10 for each group). Three of the four groups were fed ad libitum a Western diet (WD) with 40% Kcal from fat and containing 0.15% cholesterol (D12079B, Research Diets) and a sugar water (SW) solution (23.1 g/L d-fructose+18.9 g/L d-glucose) as previously described (DIAMOND model (15)). After 8 weeks, the three groups of WD-fed mice were randomly selected for treatment with vehicle (WD group) or low (WD-50 group) or high dose (WD-100 group) of […]. The WD group was fed WD and drank sugar water. The WD-50 and WD-100 groups were fed WD and drank sugar water containing, respectively, 50 or 100 mg […] per kg body weight. […] Quantification of free fatty acids. Serum and liver FFAs were analyzed using targeted LC-MS experiments performed on a quadrupole-time of flight instrument (TripleTOF 5600+, AB Sciex, Framingham, MA) as previously described with minor modifications (Tables 2 and 5). […] Free fatty acids (FFAs) in the liver and serum were quantified using product ion scan experiments (TripleTOF 5600+, AB Sciex, Framingham, MA). […] “Light” experiments with low collision energy were used for quantification. […]

[4] = system: liver metabolome; test: Liver untargeted metabolomics in WD mice; assay type: in vivo, mice (male B6 129SF1/J)

O=C([O-])Cc1c[nH]c2ccccc12.[Na+] [I3A, Indole-3-acetate sodium salt]
TNF-α induced production of saturated free fatty acids ([1]; cultured hepatocytes loaded with lipid droplets (mimicking steatosis), AhR dependent): abrogated TNF-α induced production of saturated free fatty acids | expression of Fasn and SREBP-1c ([1]; hepatocytes, AhR dependent manner): decreased the expression of Fasn and its transcriptional regulator SREBP-1c | I3A levels in fecal material, liver and serum [2]: increased I3A levels in fecal material, the liver and serum | liver total FFA concentration, significance of I3A effect ([3]; I3A treatment vs WD): no significant effect | liver total FFA concentration, reduction ([3]; WD-100 group vs WD, p=0.11): 36 % reduction | liver metabolome PLS-DA projection ([4]; high dose (WD-100) group vs CN and WD, p<0.005 and p<0.0005): only partially overlapped with both CN and the WD group | WD-induced changes in 516 significant annotated liver metabolite features (hierarchical clustering) ([4]; high dose of I3A): generally reversed these changes | liver metabolome PLS-DA projection ([4]; low dose (WD-50) group vs WD, p=0.26): overlapped completely with the WD group
